Molecules are shown by their SMILES.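 Results reflect a 48-hour exposure of cells in 96-well plates to compound at five concentrations. The concentration for 50% growth inhibition is given as GI50.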 Active and inactive are the calls of the source. No stated cut-off is given here; in the data, active = GI50 up to about 1.1 µM and inactive = higher. Bounds are passed on as bounds.

Test systems include 786-0; BT-549; CCRF-CEM; DU-145; HCC 2998; HCT-116; HT-29; IGROV-1; MDA-MB-435; MDA-N; MOLT-4; NCI-H460; PC-3; RPMI-8226; SF-539; SK-MEL-2; SN12C; SNB-19; SNB-75; UACC-257.
Assay in all cases: NCI tumour cell line growth inhibition, 48 h

Consider `O=C(Nc1ccc2c(c1)oc(=O)c1ccccc12)C(Cl)Cl`, for which the GI50 is > 100 µM (inactive) with 786-0; > 100 µM (inactive) in the test on BT-549; > 100 µM (inactive) in the test with CCRF-CEM; > 100 µM (inactive) in the test on DU-145; 63.5 µM (inactive) with HCC 2998; 69.3 µM (inactive) in the test on HCT-116. Moreover, the GI50 was 28.1 µM (inactive) with HT-29; > 100 µM (inactive) in the test with IGROV-1; > 100 µM (inactive) in the test on MDA-MB-435; > 100 µM (inactive) with MDA-N; 54.7 µM (inactive) with MOLT-4; 27.6 µM (inactive) in the test on NCI-H460. Besides, the GI50 in the test on PC-3 was 76.4 µM (inactive); with RPMI-8226, 14.3 µM (inactive); in the test with SF-539 it was 69.7 µM (inactive); in the test with SK-MEL-2 it was > 100 µM (inactive); in the test on SN12C, > 100 µM (inactive); with SNB-19 it was 27.3 µM (inactive). Also, the GI50 in the test with SNB-75 and in the test on UACC-257 was > 100 µM (inactive) throughout.
In the case of `COc1nn(Cc2ccccn2)c2ccc([N+](=O)[O-])cc12`, the GI50 is > 100 µM (inactive) with 786-0; 44.4 µM (inactive) in the test with BT-549; 76.2 µM (inactive) in the test on CCRF-CEM; > 100 µM (inactive) with DU-145; 84.7 µM (inactive) in the test on HCC 2998; 62.4 µM (inactive) in the test with HCT-116. For the same molecule, the GI50 with HT-29 was 70.6 µM (inactive); in the test on IGROV-1 it was 35.1 µM (inactive); with MDA-MB-435 it was 32.7 µM (inactive); in the test on MDA-N, 27.8 µM (inactive); in the test with MOLT-4 it was 53.1 µM (inactive); in the test with NCI-H460, > 100 µM (inactive). Moreover, the GI50 was > 100 µM (inactive) in the test with PC-3; 54.8 µM (inactive) with RPMI-8226; 27.4 µM (inactive) in the test on SF-539; 51.1 µM (inactive) with SK-MEL-2; > 100 µM (inactive) with SN12C; > 100 µM (inactive) in the test with SNB-19. For the same molecule, the GI50 was 17.3 µM (inactive) in the test with SNB-75 and 94 µM (inactive) with UACC-257.
Take `C[N+](C)(C)CC1CCc2ccccc2C1=O` (stereo not given): the GI50 was 6.46 µM (inactive) in the test on 786-0; 15.5 µM (inactive) in the test on BT-549; 2.55 µM (inactive) with CCRF-CEM; 18.6 µM (inactive) in the test on DU-145; 15.3 µM (inactive) in the test with HCC 2998; 5.55 µM (inactive) in the test with HCT-116. Besides, the GI50 with HT-29 was 6.03 µM (inactive); with IGROV-1, 11.6 µM (inactive); with MDA-MB-435 it was 5.62 µM (inactive); with MDA-N it was 5.86 µM (inactive); in the test with MOLT-4, 2.32 µM (inactive); in the test with NCI-H460, 19.7 µM (inactive). Also, the GI50 in the test with PC-3 is 15.5 µM (inactive); in the test on RPMI-8226, 1.43 µM (inactive); with SF-539 it was 15.8 µM (inactive); with SK-MEL-2, 16.7 µM (inactive); in the test on SN12C, 8.43 µM (inactive); in the test on SNB-19 it was 15.1 µM (inactive). The GI50 in the test on SNB-75 is 16.7 µM (inactive); in the test with UACC-257, 12.2 µM (inactive).
With `C=C1[C@@](C)([C@@H]2CCCS2)[C@H]2C(C)=C[C@]1(C)n1c(=O)n(-c3ccccc3)c(=O)n12`, the GI50 with 786-0, in the test with BT-549, in the test with CCRF-CEM, in the test on DU-145, with HCC 2998 and in the test on HCT-116 was > 100 µM (inactive) each time. The GI50 in the test with HT-29 was > 100 µM (inactive); in the test with IGROV-1 it was 56.2 µM (inactive); in the test with MDA-MB-435, > 100 µM (inactive); with MDA-N it was > 100 µM (inactive); in the test with MOLT-4, > 100 µM (inactive); in the test with NCI-H460, > 100 µM (inactive). For the same molecule, the GI50 in the test with PC-3, in the test on RPMI-8226, in the test with SF-539, in the test on SK-MEL-2, in the test on SN12C and in the test on SNB-19 was > 100 µM (inactive) each time. The GI50 was 46.5 µM (inactive) with SNB-75 and > 100 µM (inactive) in the test with UACC-257.
As for `CSC(=S)OC1C(CO[Si](C)(C)C(C)(C)C)OC2OC(C)(C)OC21` (stereo not given), the GI50 in the test with 786-0 was 19.5 µM (inactive); in the test on BT-549, 30.8 µM (inactive); in the test with CCRF-CEM it was 16.7 µM (inactive); in the test with DU-145, 33.5 µM (inactive); in the test with HCC 2998, 21.3 µM (inactive); in the test with HCT-116, 18.5 µM (inactive). The GI50 with HT-29 was 11.4 µM (inactive); in the test on IGROV-1, 18.3 µM (inactive); in the test on MDA-MB-435, 33.2 µM (inactive); in the test with MDA-N, 29.2 µM (inactive); in the test on MOLT-4, 15.3 µM (inactive); with NCI-H460 it was 17 µM (inactive). For the same molecule, the GI50 in the test on PC-3 was 15.8 µM (inactive); in the test with RPMI-8226, 16.3 µM (inactive); with SF-539 it was 20.2 µM (inactive); in the test on SK-MEL-2, 15 µM (inactive); in the test with SN12C, 21.3 µM (inactive); in the test on SNB-19, 21 µM (inactive). The GI50 is > 100 µM (inactive) with SNB-75 and 17.1 µM (inactive) with UACC-257.
On to `CN(CCCNC(=O)c1nn(-c2ccccc2)c2c1ccc1ccccc12)CCCNC(=O)c1nn(-c2ccccc2)c2c1ccc1ccccc12`, for which the GI50 in the test on 786-0 was 2.01 µM (inactive); in the test on BT-549 it was 1.68 µM (inactive); with CCRF-CEM, 0.178 µM (active); in the test on DU-145 it was 1.91 µM (inactive); in the test with HCC 2998, 1.31 µM (inactive); with HCT-116 it was 1.82 µM (inactive). For the same molecule, the GI50 is 1.84 µM (inactive) in the test with HT-29; 1.65 µM (inactive) in the test with IGROV-1; 1.75 µM (inactive) in the test on MDA-MB-435; 1.68 µM (inactive) in the test with MDA-N; 1.98 µM (inactive) in the test on MOLT-4; 1.76 µM (inactive) with NCI-H460. Also, the GI50 was 1.52 µM (inactive) in the test with PC-3; 1.47 µM (inactive) in the test on RPMI-8226; 1.96 µM (inactive) in the test on SF-539; 1.69 µM (inactive) in the test with SK-MEL-2; 1.85 µM (inactive) in the test with SN12C; 1.79 µM (inactive) in the test on SNB-19. Further, the figures for the GI50 in the test on SNB-75 and in the test with UACC-257 were 1.64 µM (inactive) and 1.98 µM (inactive), respectively.
`Clc1ccc(C2ON=C(c3ccccc3)N2C23CC4CC(CC(C4)C2)C3)cc1` (stereo not given): the GI50 with 786-0, in the test on BT-549, in the test on CCRF-CEM, in the test on DU-145, in the test with HCC 2998 and in the test with HCT-116 was > 10 µM (inactive) in each case. For the same molecule, the GI50 with HT-29 is > 10 µM (inactive); in the test with IGROV-1, > 10 µM (inactive); in the test on MDA-MB-435 it was > 10 µM (inactive); with MDA-N it was > 10 µM (inactive); in the test with MOLT-4, 9.66 µM (inactive); in the test with NCI-H460, > 10 µM (inactive). Besides, the GI50 in the test on PC-3, in the test with RPMI-8226, in the test with SF-539, in the test with SK-MEL-2, with SN12C and in the test with SNB-19 was > 10 µM (inactive) throughout. Besides, the GI50 with SNB-75 and in the test with UACC-257 was > 10 µM (inactive) each time.
For the molecule `C=C(C)C(=O)OC1C(C(C)CCCO)=C(CO)CC2OC(=O)C(=C)C21` (stereo not given), the GI50 was 4.13 µM (inactive) in the test on 786-0; 14 µM (inactive) in the test with BT-549; 12.6 µM (inactive) in the test with CCRF-CEM; 14.6 µM (inactive) in the test on DU-145; 17.7 µM (inactive) in the test on HCC 2998; 14.6 µM (inactive) with HCT-116. The GI50 in the test with HT-29 is 18.3 µM (inactive); with IGROV-1 it was 15.6 µM (inactive); in the test on MDA-MB-435 it was 19.9 µM (inactive); in the test on MDA-N, 16.7 µM (inactive); in the test with MOLT-4, 18.4 µM (inactive); with NCI-H460, 16.4 µM (inactive). The GI50 in the test on PC-3 was 24.4 µM (inactive); in the test with RPMI-8226, 17.1 µM (inactive); in the test on SF-539, 23 µM (inactive); in the test on SK-MEL-2, 20.5 µM (inactive); in the test on SN12C it was 16.1 µM (inactive); with SNB-19, 37.9 µM (inactive). Also, the GI50 in the test with SNB-75 is 10.4 µM (inactive); in the test with UACC-257 it was 17.1 µM (inactive).
In the case of `c1ccc(C2C3=C(c4ccccc4CC3)N3c4cc5c(cc4=NC34CCCCC24)Nc2ccccc2N=5)cc1` (stereo not given), the GI50 in the test with 786-0 is 7.14 µM (inactive); with BT-549 it was > 10 µM (inactive); with CCRF-CEM it was 1.67 µM (inactive); in the test on DU-145, > 10 µM (inactive); in the test on HCC 2998, > 10 µM (inactive); in the test with HCT-116 it was 5.55 µM (inactive). For the same molecule, the GI50 in the test on HT-29 was 7.87 µM (inactive); in the test on IGROV-1, > 10 µM (inactive); in the test with MDA-MB-435, 7.28 µM (inactive); in the test with MDA-N it was 5.83 µM (inactive); in the test on MOLT-4, 2.4 µM (inactive); in the test with NCI-H460, 5.14 µM (inactive). Besides, the GI50 in the test on PC-3 was 6.92 µM (inactive); with RPMI-8226 it was 5.11 µM (inactive); in the test with SF-539, > 10 µM (inactive); in the test with SK-MEL-2, > 10 µM (inactive); in the test with SN12C, > 10 µM (inactive); in the test with SNB-19, > 10 µM (inactive). Also, the GI50 in the test with SNB-75 is 9.27 µM (inactive); with UACC-257, > 10 µM (inactive).
Turning to `Cc1ccc2nc(-c3ccc(C(C)(C)C)cc3)oc(=O)c2c1`, the GI50 was 25.1 µM (inactive) in the test on 786-0; 24.4 µM (inactive) in the test with BT-549; 20.7 µM (inactive) in the test with CCRF-CEM; 26.7 µM (inactive) in the test with DU-145; 14.6 µM (inactive) in the test with HCC 2998; 17 µM (inactive) in the test on HCT-116. Further, the GI50 in the test with HT-29 was 19.6 µM (inactive); in the test on IGROV-1 it was 23.1 µM (inactive); in the test on MDA-MB-435, 14.7 µM (inactive); with MDA-N it was 22.9 µM (inactive); in the test with MOLT-4, 17 µM (inactive); with NCI-H460, 16.2 µM (inactive). The GI50 in the test on PC-3 was 20.7 µM (inactive); in the test on RPMI-8226, 21 µM (inactive); in the test on SF-539, 18.2 µM (inactive); in the test with SK-MEL-2, 26.7 µM (inactive); in the test with SN12C it was 38.8 µM (inactive); in the test with SNB-19 it was 25.2 µM (inactive). The GI50 in the test with SNB-75 was 14.2 µM (inactive); in the test with UACC-257, 18.9 µM (inactive).

Source of the values: ChEMBL document CHEMBL1201862, “PubChem BioAssay data set” (2004).
